{"source": "patent US8466184B2", "about": "“Biocide” (Titan Chemicals Limited, priority 2011, dated 2013)", "key": {"[1]": {"experiment": "Measuring stability of water solutions (temperature at which the solution remained fluid after 24 hours and seeding)", "format": "physicochemical", "conditions": "after 24 hours and seeding with seed crystal", "method": "According to the invention there is therefore provided a composition consisting essentially of water and the tetramethylammonium salt of 1,2-benzisothiazolin-3-one having a freezing point of less than about 0° C., such as less than about −1° C. for example less than about −3° C., about −5° C., about −10° C., about −15° C., about −20° C., about −25° C. or −30° C. As used herein the expression “freezing point” means that the composition is fluid after 24 hours and seeded with solid tetramethylammonium salt of 1,2-benzisothiazolin-3-one.\nA series of solutions of tetramethylammonium BIT in distilled water were prepared. In series of experiments the temperature at which the solution remained fluid after 24 hours and seeding with a seed crystal of tetramethylammonium BIT was measured."}, "[2]": {"conditions": "59 wt % tetramethylammonium BIT (40 wt % BIT) in water; after storage for 24 hours and seeding; cited from earlier work"}}}
{"smiles": "C[N+](C)(C)C.O=c1[n-]sc2ccccc12", "note": "[tetramethylammonium BIT, tetramethylammonium salt of 1,2-benzisothiazolin-3-one]", "values": [{"measurement": "Temp at which the solution remained fluid", "setting": "[1]; 20.3 % BIT concn in distilled water", "value": "−5", "unit": "°C"}, {"measurement": "Temp at which the solution remained fluid", "setting": "[1]; 25.3 % BIT concn in distilled water", "value": "−8", "unit": "°C"}, {"measurement": "Temp at which the solution remained fluid", "setting": "[1]; 30.4 % BIT concn in distilled water", "value": "−13", "unit": "°C"}, {"measurement": "Temp at which the solution remained fluid", "setting": "[1]; 35.6 % BIT concn in distilled water", "value": "−20", "unit": "°C"}, {"measurement": "Temp at which the solution remained fluid", "setting": "[1]; 39.3 % BIT concn in distilled water", "value": "−32", "unit": "°C"}, {"measurement": "Temp at which the solution remained fluid", "setting": "[1]; 42.6 % BIT concn in distilled water", "value": "−10", "unit": "°C"}, {"measurement": "Temp at which the solution remained fluid", "setting": "[1]; 45 % BIT concn in distilled water", "value": 5, "unit": "°C"}, {"measurement": "freezing point of lowest freezing point water solution", "setting": "[2]", "value": 3, "unit": "°C"}]}
